{"source": "patent US20210062263A1", "about": "“A CLINICAL […]” (priority 2016, published 2021)", "key": {"activin A [1]": {"test_system": "activin A", "assay": "Serum activin A levels (ELISA) in wounded male mice", "assay_type": "in vivo", "method": "(§1) Implants were prepared by cutting medical grade Silastic (polydimethylsiloxane) tubing (1.5 mm inner diameter, 2.3 mm outer diameter, Aunet Pty Ltd, WA, Australia) to the desired length (1 cm long) and sealing one end with Multi-Purpose Sealant (Dow Corning RTV Sealant). After 24 hours each tube was packed with either crystalline testosterone (Sigma #T-1500) or left empty (vehicle implant). The open end was then sealed and implants were allowed to dry for at least 24 hours prior to surgical implantation. The implant size was considered to be the length of tubing containing testosterone. Prior to subcutaneous insertion, implants were sterilized in absolute ethanol for 10 minutes which also removed any androgen adhering to its external surface. Each testosterone or vehicle implant was inserted subcutaneously via a 5-mm nape incision in intact and castrated male mice three weeks before the wound healing experiments and the incision site was closed with 5/0 sutures.\n(§2) Under anesthesia, the dorsal flanks of each 9 weeks old mouse (n=6/group) were carefully shaved and cleansed with 70% v/v ethanol. To create wounds, full-thickness, parasagittal linear incisions (1 cm long) were made through the skin and underlying the panniculus carnosus muscle on each flank and each wound was closed using two 5/0 silk sutures placed 3 mm from each end of the wound. Post operatively, all animals received analgesia to minimize pain, were allowed to recover on a heated pad and then housed in groups of four animals per cage. Incisions were examined and assessed on days 3, 5, 7 and post-wounding.\n(§3) Blood samples were collected between 10:00 and 10:30 am by cardiac puncture at different time points (0d, 3d, 5d, 7d or 14d) according to the experimental protocol. The samples were allowed to coagulate for 30 minutes then centrifuged at 10,000 g for 10 minutes to collect serum which was stored at −20° C. until assayed.\nActivin A levels were measured in serum and skin using a specific ELISA and human recombinant activin A as a standard, according to manufacturer's instructions (Oxford Bioinnovations, Cherwell, Oxfordshire, UK) [Knight et al. (1996) J Endocrinol 148(2):267-279]. The assay sensitivity for serum activin A was 11 pg/ml, with an intra-assay variation of 4.6-7.5% and an inter-assay variation of 10.6%."}, "follistatin [2]": {"test_system": "follistatin", "assay": "Serum follistatin levels (RIA) in wounded male mice", "assay_type": "in vivo", "method": "as §1, §2, §3\nSerum and skin follistatin levels were measured by RIA using human recombinant follistatin 288 as standard and as tracer following labeling with I^125 (O'Conner et al. (1999) Hum Reprod 14(3):827-832). The assay sensitivity for serum follistatin was 1.52 ng/ml, and the intra-assay variation was 5.4-5.7%."}, "[3]": {"assay": "Reproductive organ weights (seminal vesicle, epididymis)", "assay_type": "in vivo, mice", "conditions": "castrated males, testosterone replacement", "from_the_text": "Six week-old male mice were castrated under anesthesia three weeks prior to the studies on wound healing. The testes were gently pushed through the inguinal canal into the abdominal cavity and exposed through a small (0.5 cm) ventral midline abdominal incision. Each testis was gently dissected from its epididymis and removed after ligation of the testicular vasculature. All incisions were closed using two interrupted 5/0 silk sutures (Johnson & Johnson Medical, NSW, Australia).\nas §1, with “Each testosterone or vehicle implant was inserted subcutaneously via a 5-mm nape incision in intact and castrated male mice three weeks before the wound healing experiments and the incision site was closed with 5/0 sutures.” left out"}, "dorsal skin wound": {"test_system": "dorsal skin wound", "assay": "Histopathological measurements of skin wounds", "assay_type": "in vivo, mice", "method": "as §1, §2\n(§4) Following exsanguination, anesthetized animals were killed by cervical dislocation. Full-thickness specimens of the skin wound, consisting of the entire wound scar surrounded by a border of about 3-mm, were excized and bisected. Half of each sample was frozen at −80° C. and the other half was fixed in 4% v/v paraformaldehyde (Sigma-Aldrich, NSW, Australia) and processed for histology. Unwounded skin was obtained from the dorsum of the trunk near the tail of each animal to determine protein levels.\nTransverse histological sections (5 μm) of skin from the center of each wound were stained with hematoxylin and eosin (H&E) [Harris' Hematoxylin, 1% v/v Eosin, Amber Scientific, Midvale, Wash., Australia] and analyzed by light microscopy. All histological analyses were performed blind without knowledge of the identity of each specimen. Histological sections were scanned for assessment using Aperio ScanScope AT Turbo Scanner (Aperio, CA, USA) and the electronic slides (eSlides) were visualized and analyzed using Aperio ImageScope.\nWound width was calculated by measuring the distance between the unwounded dermis margins at the epidermis-dermis junction (Gilliver et al. (2008) endocrinology 149(11):5747-5757). When the width was <0.2 mm, the wound was considered closed. Reepithelialization was assessed using the following scoring method: 0, absent; 1, present, covering <50% of the wound; 2, present, covering >50% and <100% of the wound; 3, present, covering 100% with irregular thickness; 4, present, covering 100% with regular thickness (Steed et al. (1997) 77(3):575-586). To determine epidermal hyperplasia, the mean distance between the stratum granulosum and the epidermal-dermal junction of each wound site was calculated (10 measurements per section, using a 10× objective). Unwounded skin was used as control.\nSections from day 7 and day 14 wounds were also stained with Masson's trichrome to highlight connective tissue. The area of granulation tissue was measured by defining the area located between the basal surface of the epidermis and the panniculus carnosus below. Collagen orientation was assessed using the following scoring method: 1, basket-weave fibers; 2, basket-weave >parallel fibers; 3, parallel fibers >basket-weave fibers; 4, parallel fibers (Ashcroft and Mills (2002) J Clin Invest 110(5):615-624)."}, "activin A [4]": {"test_system": "activin A", "assay": "Cutaneous activin A levels (ELISA) after wounding", "assay_type": "in vivo, mice", "conditions": "testosterone replacement, day 3 post-wounding", "from_the_text": "as §2\nas §4, with “levels. […]” for “levels.”\nActivin A levels were measured in serum and skin using a specific ELISA and human recombinant activin A as a standard, according to manufacturer's instructions (Oxford Bioinnovations, Cherwell, Oxfordshire, UK) [Knight et al. (1996) J Endocrinol 148(2):267-279]. […]"}, "follistatin [5]": {"test_system": "follistatin", "assay": "Cutaneous follistatin levels (RIA) after wounding", "assay_type": "in vivo, mice", "from_the_text": "as §2\nas §4, with “levels. […]” for “levels.”\nSerum and skin follistatin levels were measured by RIA using human recombinant follistatin 288 as standard and as tracer following labeling with I^125 (O'Conner et al. (1999) Hum Reprod 14(3):827-832). […]"}}}
{"smiles": "C[C@]12CC[C@H]3[C@@H](CCC4=CC(=O)CC[C@@]43C)[C@@H]1CC[C@@H]2O", "note": "[testosterone]", "values": [{"measurement": "Serum Activin A", "setting": "activin A [1]; Castrated + T males, 0 d", "value": "80.2 ± 7.8", "unit": "pg/mL"}, {"measurement": "Serum Activin A", "setting": "activin A [1]; Castrated + T males, 3 d", "value": "65.4 ± 5.8", "unit": "pg/mL"}, {"measurement": "Serum Activin A", "setting": "activin A [1]; Castrated + T males, 5 d", "value": "54.9 ± 7.7", "unit": "pg/mL"}, {"measurement": "Serum Activin A", "setting": "activin A [1]; Castrated + T males, 7 d", "value": "83.8 ± 7.3", "unit": "pg/mL"}, {"measurement": "Serum Activin A", "setting": "activin A [1]; Castrated + T males, 14 d", "value": "93 ± 7.7", "unit": "pg/mL"}, {"measurement": "Serum Activin A", "setting": "activin A [1]; Intact + T males, 0 d", "value": "65.4 ± 6.8", "unit": "pg/mL"}, {"measurement": "Serum Activin A", "setting": "activin A [1]; Intact + T males, 3 d", "value": "85.2 ± 5", "unit": "pg/mL"}, {"measurement": "Serum Activin A", "setting": "activin A [1]; Intact + T males, 5 d", "value": "74.9 ± 6.9", "unit": "pg/mL"}, {"measurement": "Serum Activin A", "setting": "activin A [1]; Intact + T males, 7 d", "value": "92.1 ± 3.8", "unit": "pg/mL"}, {"measurement": "Serum Activin A", "setting": "activin A [1]; Intact + T males, 14 d", "value": "74.6 ± 3.5", "unit": "pg/mL"}, {"measurement": "serum activin levels (in words)", "setting": "activin A [1]; castrated males, testosterone replacement vs castrated+Vh, days 3 and 5 post wounding", "value": "decreased serum activin levels"}, {"measurement": "Serum Follistatin", "setting": "follistatin [2]; Castrated + T males, 0 d", "value": "4.3 ± 0.5", "unit": "ng/mL"}, {"measurement": "Serum Follistatin", "setting": "follistatin [2]; Castrated + T males, 3 d", "value": "4.1 ± 0.3", "unit": "ng/mL"}, {"measurement": "Serum Follistatin", "setting": "follistatin [2]; Castrated + T males, 5 d", "value": "3.9 ± 0.2", "unit": "ng/mL"}, {"measurement": "Serum Follistatin", "setting": "follistatin [2]; Castrated + T males, 7 d", "value": "4.5 ± 0.3", "unit": "ng/mL"}, {"measurement": "Serum Follistatin", "setting": "follistatin [2]; Castrated + T males, 14 d", "value": "4.5 ± 0.5", "unit": "ng/mL"}, {"measurement": "Serum Follistatin", "setting": "follistatin [2]; Intact + T males, 0 d", "value": "3.6 ± 0.03", "unit": "ng/mL"}, {"measurement": "Serum Follistatin", "setting": "follistatin [2]; Intact + T males, 3 d", "value": "3.8 ± 0.3", "unit": "ng/mL"}, {"measurement": "Serum Follistatin", "setting": "follistatin [2]; Intact + T males, 5 d", "value": "3.8 ± 0.1", "unit": "ng/mL"}, {"measurement": "Serum Follistatin", "setting": "follistatin [2]; Intact + T males, 7 d", "value": "3.8 ± 0.4", "unit": "ng/mL"}, {"measurement": "Serum Follistatin", "setting": "follistatin [2]; Intact + T males, 14 d", "value": "3.6 ± 0.2", "unit": "ng/mL"}, {"measurement": "size and weight of the epididymis", "setting": "[3]", "value": "0.05±0.02"}, {"measurement": "size and weight of the seminal vesicle", "setting": "[3]", "value": "0.42±0.02"}, {"measurement": "collagen fiber orientation", "setting": "dorsal skin wound; castrated males treated with testosterone, day 14 post-wounding", "value": "predominant parallel orientation"}, {"measurement": "wound width", "setting": "dorsal skin wound; castrated males, testosterone replacement vs castrated group, days 3 and 5 post-wounding", "value": "significantly increased wound widths"}, {"measurement": "re-epithelialization", "setting": "dorsal skin wound; castrated+T group, day 5 post-wounding", "value": "re-epithelialization was complete"}, {"measurement": "epidermal thickness", "setting": "dorsal skin wound; castrated+T group, days 3, 5 and 7 post-wounding", "value": "increased thickness of the epidermis"}, {"measurement": "wound width", "setting": "dorsal skin wound; intact males treated with testosterone vs intact group, day 3 post-wounding", "value": "decreased wound width"}, {"measurement": "wound closure (summary)", "setting": "dorsal skin wound; male mice", "value": "delayed wound closure"}, {"measurement": "increase in cutaneous levels of activin A", "setting": "activin A [4]; castrated males", "value": 17, "unit": "fold"}, {"measurement": "cutaneous levels of activin A relative to castrated males", "setting": "activin A [4]", "value": "twice"}, {"measurement": "follistatin levels in skin", "setting": "follistatin [5]; castrated testosterone replacement group vs vehicle group, day 3 post-wounding", "value": "significantly higher"}, {"measurement": "follistatin levels in skin", "setting": "follistatin [5]; intact males given testosterone vs intact males that received vehicle", "value": "significantly lower"}]}
